Where a name gives a salt, the structure may show the parent alone.

This is an account of results in patent US5225559A, “Diarylmethoxypiperidine derivatives” (Ube Industries, Ltd., priority 1990, dated 1993).

In assay [1] the test system is ileum shrinkage induced by histamine. In words: inhibitory effect of the test compounds on the ileum shrinkage induced by histamine. The class given is cell-based, guinea pigs. To be noted: Cavia porcellus; test compound 10^-7 M; histamine 10^-5 M; isolated ileum, Magnus tank, Tyrode solution; read-out: Inhibition ratio against shrinkage by histamine. Here is the method:
(§1) Ileum samples removed from guinea pigs were suspended isotonically in a Magnus tank containing a 95% O2 and 5% CO2 saturated Tyrode solution to determine inhibitory effect of the test compounds (10^-7 M) on the ileum shrinkage induced by histamine (10^-5 M) or leukotoriene (10^-8 M). The inhibitory ratio (%) was determined by the following formula. [formula]

The subject of assay [2] is ileum shrinkage induced by leukotoriene. In words: inhibitory effect of the test compounds on the ileum shrinkage induced by leukotriene. The class given is cell-based, guinea pigs. To be noted: Cavia porcellus; test compound 10^-7 M; leukotoriene 10^-8 M; isolated ileum, Magnus tank, Tyrode solution; read-out: Inhibition ratio against shrinkage by leukotriene. Here is the method: as §1

Regarding `C=CCc1c(OCCCN2CCC(OC(c3ccc(Cl)cc3)c3ccccn3)CC2)ccc(C(C)=O)c1O` (stereo not drawn) [Example 38], the inhibition at 0.1 µM was 32% in assay [1] and 33% in assay [2].
In the same order, the values of `COC(=O)c1cc(=O)c2cc(C(C)C)cc(NC(=O)CCCN3CCC(OC(c4ccc(F)cc4)c4ccc(F)cc4)CC3)c2o1` [Example 60] are 58% and 37%.
In the same order, the values of `C=CCc1c(OCCCN2CCC(OC(c3ccccc3)c3ccccc3)CC2)ccc2c(=O)cc(C(=O)OCCCC)oc12` [Example 41] are 31% and 31%.
In the same order, the values of `COC(=O)c1ccc(OCCCN2CCC(OC(c3ccccc3)c3ccccc3)CC2)cc1` [Example 14] are 69% and 39%.
In the case of `C=CCc1c(OCC(O)CN2CCC(OC(c3ccc(Cl)cc3)c3ccccn3)CC2)ccc(C(C)=O)c1O` (stereo not drawn) [Example 47], the figures for the inhibition at 0.1 µM in assay [1] and in assay [2] were 38% and 36%, respectively.
Turning to `C=CCc1c(OCCCN2CCC(OC(c3ccccc3)c3ccccc3)CC2)ccc2c(C)cc(=O)oc12` [Example 7], the inhibition at 0.1 µM in assay [1] was 67%; in assay [2], 51%.
The like results for `CCCc1c(OCC(O)CN2CCC(OC(c3ccc(Cl)cc3)c3ccccn3)CC2)ccc(C(C)=O)c1O` (stereo not drawn) [Example 45] were, in that order, 40% and 30%.
As for `CCCc1c(OCC(O)CN2CCC(OC(c3ccc(F)cc3)c3ccc(F)cc3)CC2)ccc(C(C)=O)c1O` (stereo not drawn) [Example 44, 1-{(3-(4-acetyl-3-hydroxy-2-n-propylphenoxy)-2-hydroxy]propyl}-4-[bis(4-fluorophenyl)methoxy]piperidine fumarate], the inhibition at 0.1 µM is 43% in assay [1] and 35% in assay [2].
The like results for `COc1cc(C(C)=O)ccc1OCCCN1CCC(OC(c2ccccc2)c2ccccc2)CC1` [Example 2] were, in that order, 96% and 30%.
